Experimental data: article PMC12220852, “An adamantane‐based ligand as a novel chemical tool for thermosensory TRPM8 channel therapeutic modulation” (The Febs Journal, 2025)
Entries after “also recorded” stand apart in the source; their conditions may differ.

How the values were obtained:
[1] = tested on: oxaliplatin‐induced peripheral cold allodynia in mice; experiment: Acetone drop test in oxaliplatin-induced cold allodynia; assay type: in vivo, mouse; conditions: 30 and 90 min after administration, oxaliplatin-treated mice
Experimental: Given the inhibitory activity of compound 23 and the antinociceptive effects of TRPM8 antagonists described in models of oxaliplatin (OXP)‐induced neuropathy, we conducted a behavioral experiment in mice to assess the antinociceptive effects of compound 23 after repeated oxaliplatin administration. Oxaliplatin was intraperitoneally (i.p.) administered every other day for 5 days at 6 mg·kg^−1, reaching a total accumulative dose of 18 mg·kg^−1. […]
(§1) The systemic effect of compound 23 was assessed after intraperitoneal administration at 5 mg·kg^−1, dissolved in a solution of 2% Cremophor and 5% DMSO in saline, with a volume of 10 mL·kg^−1. […] Nociceptive sensitivity was evaluated for 30‐ and 90‐min postinjection using the acetone drop test (7 days after the first oxaliplatin dose) and the dry ice test (9 days after the last oxaliplatin dose).
The local effect of compound 23 or its vehicle was assessed 11 days after beginning the oxaliplatin treatment through subcutaneous intraplantar injection of 1 μg compound 23 or vehicle (2% Cremophor and 5% DMSO in saline) in the ventral side of the right hind paw, administered in a volume of 10 μL [66]. […] Nociceptive sensitivity was evaluated 30 and 90 min after the intraplantar injection with the acetone test. […]

[2] = tested on: oxaliplatin‐induced peripheral cold allodynia in mice; experiment: Dry ice test in oxaliplatin-induced cold allodynia; assay type: in vivo, mouse; conditions: 5 mg·kg^−1 i.p., 30 and 90 min after administration, vs vehicle, oxaliplatin-treated mice
Experimental: Given the inhibitory activity of compound 23 and the antinociceptive effects of TRPM8 antagonists described in models of oxaliplatin (OXP)‐induced neuropathy, we conducted a behavioral experiment in mice to assess the antinociceptive effects of compound 23 after repeated oxaliplatin administration. Oxaliplatin was intraperitoneally (i.p.) administered every other day for 5 days at 6 mg·kg^−1, reaching a total accumulative dose of 18 mg·kg^−1. […] The OXP‐induced sensitization to cold stimuli was also evident with the dry ice test, as evidenced by the significant reduction in the latency to cold stimulation through the application of a dry ice pellet against the paw on a glass surface (Fig. 8B, P < 0.05 Before OXP vs. After OXP). […]
as §1
The dry ice test was conducted as previously described with some modifications. […] To determine the threshold value for each mouse, the latency to paw withdrawal was recorded for each hindpaw and subsequently averaged. […]

## O=C(COC(=O)c1ccccc1-c1ccccc1)NC12CC3CC(CC(C3)C1)C2 [Compound 23, 2‐((3S,5S,7S)‐adamantan‐1‐ylamino)‐2‐oxoethyl [1,1′‐biphenyl]‐2‐carboxylate]
[1]; 1 μg subcutaneous intraplantar (i.pl.)
  effect on response to acetone, local treatment: alleviated oxaliplatin‐induced cold sensitivity; also recorded: significant antinociceptive effect
[1]; 5 mg·kg^−1 i.p., vs vehicle
  effect on licking response to acetone drops, systemic treatment: no significant effect; also recorded: did not significantly affect
[2]
  effect on withdrawal latency to dry ice, systemic treatment: did not exhibit cold antinociceptive effects; also recorded: did not significantly affect
